Results on 3 compounds are retold here after patent US20250197799A1, “CELLS DERIVED FROM POLYPEDILUM VANDERPLANKI AND ODOR SENSOR EQUIPPED THEREWITH” (University of Maryland, College Park, priority 2022, published 2025).

The subject of test [1] is Orco-Or47a. The test is described as follows: Response after rehydration with cycloheximide treatment, Orco-Or47a stable expression cell line. In kind it is cell-based, Drosophila melanogaster. The procedure: 7. Confirmation that exogenous membrane protein responses in Orco-Or47a stable expression cell lines immediately after rehydration are not due to de novo protein synthesis. To confirm that the membrane protein response of the Orco-Or47a stable expression cell line immediately after rehydration was not due to de novo protein synthesis, cells were treated with cycloheximide (CHX, a protein synthesis inhibitor).
A previous study reported that 0.35 mM of cycloheximide is able to inhibit protein production in Pv11 cells. Therefore, also in this experiment, cycloheximide was dissolved in IPL-41 medium so that the cycloheximide concentration was 0.35 mM. An IPL-41 medium with 0.01 mM, 0.07 mM and 0.7 mM cycloheximide was also prepared. […] One hour after rehydration and 24 hours after rehydration, the same operation as in 3.6 above was performed, and the fluorescence intensity was measured and analyzed. […] FIG. 7A and FIG. 7B are graphs showing changes in fluorescence intensity of the Orco-Or47a stable expression cell line response to VUAA1 and pentyl acetate, respectively, one hour after drying and rehydration. FIGS. 7C and 7D are graphs showing changes in fluorescence intensity, respectively, in response to VUAA1 and pentyl acetate of Orco-Or47a stable expression cell lines 24 hours after drying and rehydration.

The next test deals with Pv11 cells. Particulars: previous study; cited from earlier work.
The subject of test [2] is GCaMP6f stable expression cell line. The test is described as follows: Functionality of GCaMP6f with ionomycin. Particulars: ionomycin final concentration 1 μM, DMSO 1%; DMSO negative control showed no increase. In kind it is cell-based, Polypedilum vanderplanki. The procedure:
3.2 The functionality of GCaMP6f. The functionality of GCaMP6f in the resulting cell lines was evaluated using Ionomycin (Ionomycin; Fujifilm Wako Pure Chemical) to increase the intracellular concentration of calcium ions to provide functional confirmation of exogenous proteins in the GCaMP6f stable-expressing cell line. Ionomycin was dissolved in dimethyl sulfoxide (DMSO; Fujifilm Wako Pure Chemical Industries, Ltd.), adjusted to a final DMSO concentration of 1% and an ionomycin final concentration of 1 μM in IP1-41 medium, and added to the cell solution. As a negative control, DMSO was adjusted to a final concentration of 1% in IP 1-41 medium and added to the cell solution. Bright-field images and fluorescence images (ex: 470/40 nm; em: 525/50 nm) of the cells before and after solution addition were taken (all-in-one fluorescence microscope BZ-X710, Keyence). […] Therefore, it was confirmed that the expressed GCaMP6f functioned in the obtained stable expression cell line. For statistical analysis of fluorescence intensity, one-way ANOVA was performed using Prism8 (GraphPad), followed by Tukey's multiple comparison test as a post-hoc test, […]

The target in test [3] is T1, Orco-Or47a (Drosophila melanogaster, UniProt P81921+Q9VNB5).
T1 sequence (Q9VNB5 1-486): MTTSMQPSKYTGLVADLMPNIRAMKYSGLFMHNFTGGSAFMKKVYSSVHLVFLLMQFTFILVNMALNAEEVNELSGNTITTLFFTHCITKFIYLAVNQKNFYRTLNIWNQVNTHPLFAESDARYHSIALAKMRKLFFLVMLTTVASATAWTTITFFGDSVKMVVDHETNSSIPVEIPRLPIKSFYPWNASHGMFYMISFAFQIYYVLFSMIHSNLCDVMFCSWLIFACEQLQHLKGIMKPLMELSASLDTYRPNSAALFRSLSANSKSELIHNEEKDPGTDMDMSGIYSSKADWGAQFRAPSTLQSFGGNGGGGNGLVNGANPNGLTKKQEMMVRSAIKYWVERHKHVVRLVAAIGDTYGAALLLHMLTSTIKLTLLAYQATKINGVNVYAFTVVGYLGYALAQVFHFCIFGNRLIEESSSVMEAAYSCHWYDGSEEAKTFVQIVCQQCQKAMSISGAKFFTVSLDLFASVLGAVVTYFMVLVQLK
T1 sequence (P81921 1-385): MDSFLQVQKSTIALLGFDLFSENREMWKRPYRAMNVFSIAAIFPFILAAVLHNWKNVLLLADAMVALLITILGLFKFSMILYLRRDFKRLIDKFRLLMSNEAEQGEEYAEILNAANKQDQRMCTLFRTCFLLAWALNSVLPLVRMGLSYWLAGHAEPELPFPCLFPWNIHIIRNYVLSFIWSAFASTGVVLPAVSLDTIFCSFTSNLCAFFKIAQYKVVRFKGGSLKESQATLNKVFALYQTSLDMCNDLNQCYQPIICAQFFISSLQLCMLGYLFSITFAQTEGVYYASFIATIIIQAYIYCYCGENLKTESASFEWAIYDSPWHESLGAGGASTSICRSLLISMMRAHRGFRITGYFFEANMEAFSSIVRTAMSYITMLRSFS
The test is described as follows: Exogenous membrane protein function before drying and after drying-rehydration, Orco-Or47a stable expression cell line. In kind it is cell-based. Details: remnant residues; expressed in transfected cells; host or cells: Pv11 cells (Polypedilum vanderplanki), CRIS-PITCh knock-in at the Pv.00443 locus downstream of the 121 promoter, Zeocin selection and single-cell sorting. To be noted: before drying. The procedure:
To assess the drought tolerance of the cell lines, the cells were dried according to the following protocol. 4×10^7 Pv11-GCaMP6f stable expression cell lines were centrifuged at 700 g for 3 minutes and the supernatant removed. The precipitated cells were suspended in a 600 mM trehalose mix of 600 mM trehalose and IPL-41 medium at a ratio of 9:1, transferred to a 2 ml flask, and incubated at 25° C. for 48 hours. After 48 hours, the obtained cells were centrifuged at 700 g for 3 minutes and the supernatant was removed. The sedimented cells were suspended in 400 μl of 600 mM trebalose mix, and 40 μl were dropped onto a 35 mm dish. The 35 mm dish was dried for 10 days under conditions of 25° C. and humidity of 10% or less.
6. Assessment of exogenous membrane protein function after drying-rehydration. Using the Orco stable expression cell line and Orco-Or47a stable expression cell line, in order to assess the function of exogenous membrane proteins before drying and after 1 hour of rehydration after drying, fluorescence intensity generated in response to stimulation with VUAA1 (Orco agonist) or pentyl acetate (ligand of Or47a) was measured in the same manner as in 3.2 above.
The fluorescence intensity was digitized from the photograph, and ΔF/F was calculated according to the following formula:
Where the summation Σi=1^n is over the n cells in the image, Fi,after means the fluorescence intensity of the cell i after adding the ligand solution, and Fi,0 means the fluorescence intensity of the cell i before adding the ligand solution.
Specifically, a fluorescence image was taken under the condition in which the excitation wavelength/fluorescence wavelength was 488 nm/525 nm. In the fluorescence intensity quantification, the cells were identified in the photographed image, and the fluorescence intensity (F) was measured for each time. The initial values of fluorescence intensity (F0) were subtracted from the measured fluorescence intensity at each time to obtain the amount of change in fluorescence (ΔF), which was then normalized by dividing by the initial value of fluorescence intensity (F0) to obtain (Δ F/F0). A number of cells n were selected from the captured image, ΔF/F0 were produced for each, and the average value (including standard deviation, SD) of the results was graphed. For example, 25 cells were selected from the captured image, ΔF/F0 for each were produced, and the averaged results (including SD) were graphed. […] The Orco-Or47a stable expression cell line before drying responded to the Orco agonist (VUAA1) and the specific ligand of Or47a, pentyl acetate.

Molecules are shown by their SMILES.

Regarding `C[C@@H]1C[C@@H]([C@H](O)CC2CC(=O)NC(=O)C2)C(=O)[C@@H](C)C1` [cycloheximide], in the test with Orco-Or47a [1] (1 hour after rehydration, cycloheximide 0.01, 0.07, 0.35, 0.7 mM, response to VUAA1 or pentyl acetate), the “effect of cycloheximide on function of the exogenous membrane protein” value was “no significant difference”. In addition, the “effect of CHX treatment on response” value in the test on Orco-Or47a [1] (24 hours after rehydration, response to VUAA1 and pentyl acetate) is recorded as “less responsive”. Further, the “concentration able to inhibit protein production” value with Pv11 cells is given as 0.35 mM.
As to `C[C@H](CCC(=O)O)C[C@H](C)C[C@H](C)C(=O)/C=C(\O)[C@H](C)C[C@H](C)C/C=C/[C@@H](C)[C@@H](O)[C@@H](C)[C@@H](O)C[C@@H]1CC[C@@](C)([C@H]2CC[C@@](C)([C@@H](C)O)O2)O1` [ionomycin, Ionomycin], the fluorescence after addition result in test [2] is given as “stronger fluorescence than before the addition”.
As to `CC(=O)c1ccccc1` [acetophenone], the “response as change in fluorescence intensity (ΔF/F0)” value on Orco-Or47a [3] is on record as “did not react”.
